How the values were obtained:
[1] = Growth inhibition of human SF295 cells after 48 hrs by sulforhodamine B assay; format: functional; conditions: SF-295, 48 h
TK-10 = assay: Growth inhibition of human TK10 cells after 48 hrs by sulforhodamine B assay; format: functional; conditions: TK-10, 48 h
[2] = Antiproliferative activity against human SKOV3 cells overexpressing wild type beta3 tubulin after 48 hrs by sulforhodamine B assay; format: functional, cell-based; conditions: SK-OV-3, 48 h
ACHN = assay: Growth inhibition of human ACHN cells after 48 hrs by sulforhodamine B assay; format: functional
U-251 = assay: Growth inhibition of human U251 cells after 48 hrs by sulforhodamine B assay; format: functional; conditions: U-251, 48 h
HT-29 = assay: Growth inhibition of human HT-29 cells after 48 hrs by sulforhodamine B assay; format: functional; conditions: HT-29, 48 h
[3] = Growth inhibition of human MOLT4 cells after 48 hrs by sulforhodamine B assay; format: functional; conditions: MOLT-4, 48 h
MDA-MB-435 [4] = assay: Antiproliferative activity against human MDA-MB-435 cells after 48 hrs by sulforhodamine B assay; format: functional, cell-based; conditions: MDA-MB-435, 48 h
A498 = assay: Growth inhibition of human A498 cells after 48 hrs by sulforhodamine B assay; format: functional; conditions: A498, 48 h
[5] = Growth inhibition of human HCT15 cells after 48 hrs by sulforhodamine B assay; format: functional; conditions: HCT-15, 48 h
MCF7 = assay: Growth inhibition of human MCF7 cells after 48 hrs by sulforhodamine B assay; format: functional; conditions: MCF7, 48 h
MDA-MB-435 [6] = assay: Growth inhibition of human MDA-MB-435 cells after 48 hrs by sulforhodamine B assay; format: functional; conditions: MDA-MB-435, 48 h
Tubulin (Bos taurus) = Tubulin (Bos taurus) (UniProt Q6B856+Q862L2+Q862F3); assay: Displacement of [3H]colchicine from bovine brain tubulin assembly at 1 uM
[7] = Growth inhibition of human OVCAR5 cells after 48 hrs by sulforhodamine B assay; format: functional; conditions: OVCAR-5, 48 h
HL-60(TB) = assay: Growth inhibition of human HL-60(TB) cells after 48 hrs by sulforhodamine B assay; format: functional; conditions: HL-60, 48 h
786-0 = assay: Growth inhibition of human 786-0 cells after 48 hrs by sulforhodamine B assay; format: functional; conditions: 786-0, 48 h
M14 = assay: Growth inhibition of human M14 cells after 48 hrs by sulforhodamine B assay; format: functional; conditions: M14, 48 h
SW-620 = assay: Growth inhibition of human SW620 cells after 48 hrs by sulforhodamine B assay; format: functional; conditions: SW-620, 48 h
MDA-MB-468 = assay: Growth inhibition of human MDA-MB-468 cells after 48 hrs by sulforhodamine B assay; format: functional; conditions: MDA-MB-468, 48 h
[8] = Growth inhibition of human RXF393 cells after 48 hrs by sulforhodamine B assay; format: functional; conditions: RXF 393, 48 h
[9] = Antiangiogenic activity in VEGF-165 and bFGF-stimulated chicken embryo chorioallantoic membrane assessed as inhibition of blood vessel formation after 40 hrs by microscopy; format: functional, tissue-based, Gallus gallus
HeLa [10] = assay: Antiproliferative activity against human HeLa cells overexpressing wild type beta3 tubulin after 48 hrs by sulforhodamine B assay; format: functional, cell-based
SF-268 = assay: Growth inhibition of human SF268 cells after 48 hrs by sulforhodamine B assay; format: functional; conditions: SF-268, 48 h
NCI/ADR-RES = assay: Growth inhibition of human NCI/ADR-RES cells after 48 hrs by sulforhodamine B assay; format: functional
[11] = Growth inhibition of human OVCAR8 cells after 48 hrs by sulforhodamine B assay; format: functional; conditions: OVCAR-8, 48 h
HOP-62 = assay: Growth inhibition of human HOP62 cells after 48 hrs by sulforhodamine B assay; format: functional; conditions: HOP-62, 48 h
NCI-H23 = assay: Growth inhibition of human NCI-H23 cells after 48 hrs by sulforhodamine B assay; format: functional; conditions: NCI-H23, 48 h
SNB-75 = assay: Growth inhibition of human SNB75 cells after 48 hrs by sulforhodamine B assay; format: functional; conditions: SNB-75, 48 h
SN12C = assay: Growth inhibition of human SN12C cells after 48 hrs by sulforhodamine B assay; format: functional
HeLa [12] = assay: Antiproliferative activity against human HeLa cells after 48 hrs by sulforhodamine B assay; format: functional, cell-based
[13] = Growth inhibition of human SF539 cells after 48 hrs by sulforhodamine B assay; format: functional; conditions: SF-539, 48 h
SK-MEL-28 = assay: Growth inhibition of human SK-MEL-28 cells after 48 hrs by sulforhodamine B assay; format: functional; conditions: SK-MEL-28, 48 h
CCRF-CEM = assay: Growth inhibition of human CCRF-CEM cells after 48 hrs by sulforhodamine B assay; format: functional
[14] = Growth inhibition of human OVCAR3 cells after 48 hrs by sulforhodamine B assay; format: functional; conditions: OVCAR-3, 48 h
A549 = assay: Growth inhibition of human A549 cells after 48 hrs by sulforhodamine B assay; format: functional; conditions: A549, 48 h
[15] = Antiproliferative activity against human SKOV3-MDR1-M6/6 cells overexpressing wild type beta3 tubulin after 48 hrs by sulforhodamine B assay; format: functional, cell-based; conditions: SKOV3-MDR1-M6/6, 48 h
SK-OV-3 = assay: Growth inhibition of human SKOV3 cells after 48 hrs by sulforhodamine B assay; format: functional; conditions: SK-OV-3, 48 h
[16] = Growth inhibition of human BT549 cells after 48 hrs by sulforhodamine B assay; format: functional; conditions: BT-549, 48 h
NCI-H460 = assay: Growth inhibition of human NCI-H460 cells after 48 hrs by sulforhodamine B assay; format: functional; conditions: NCI-H460, 48 h
SNB-19 = assay: Growth inhibition of human SNB19 cells after 48 hrs by sulforhodamine B assay; format: functional; conditions: SNB-19, 48 h
SK-MEL-2 = assay: Growth inhibition of human SK-MEL-2 cells after 48 hrs by sulforhodamine B assay; format: functional; conditions: SK-MEL-2, 48 h
SK-MEL-5 = assay: Growth inhibition of human SK-MEL-5 cells after 48 hrs by sulforhodamine B assay; format: functional; conditions: SK-MEL-5, 48 h
NCI-H226 = assay: Growth inhibition of human NCI-H226 cells after 48 hrs by sulforhodamine B assay; format: functional; conditions: NCI-H226, 48 h
NCI-H522 = assay: Growth inhibition of human NCI-H522 cells after 48 hrs by sulforhodamine B assay; format: functional; conditions: NCI-H522, 48 h
[17] = Growth inhibition of human HOP92 cells after 48 hrs by sulforhodamine B assay; format: functional; conditions: HOP-92, 48 h
A-431 = assay: Antiproliferative activity against human A431 cells after 48 hrs by sulforhodamine B assay; format: functional, cell-based; conditions: A-431, 48 h
CAKI-1 = assay: Growth inhibition of human Caki1 cells after 48 hrs by sulforhodamine B assay; format: functional; conditions: CAKI-1, 48 h
[18] = Growth inhibition of human PC3 cells after 48 hrs by sulforhodamine B assay; format: functional; conditions: PC-3, 48 h
[19] = Growth inhibition of human […] cells after 48 hrs by sulforhodamine B assay; format: functional
[20] = Growth inhibition of human Hs 578T cells after 48 hrs by sulforhodamine B assay; format: functional
[21] = Growth inhibition of human EKVX cells after 48 hrs by sulforhodamine B assay; format: functional

COc1ccc2c(c1)CCCN2c1nc(C)nc2oc(C)cc12
GI50 [1]: < 10 nM
GI50 (TK-10): < 10 nM
IC50 [2]: 12.9 nM
GI50 (ACHN): < 10 nM
GI50 (U-251): < 10 nM
GI50 (HT-29): < 10 nM
GI50 [3]: 15 nM
IC50 (MDA-MB-435 [4]): 9.8 nM
GI50 (A498): < 10 nM
GI50 [5]: < 10 nM
GI50 (MCF7): < 10 nM
GI50 (MDA-MB-435 [6]): < 10 nM
inhibition (Tubulin (Bos taurus)): 82%
GI50 [7]: 43 nM
GI50 (HL-60(TB)): < 10 nM
GI50 (786-0): < 10 nM
GI50 (M14): < 10 nM
GI50 (SW-620): < 10 nM
GI50 (MDA-MB-468): < 10 nM
GI50 [8]: < 10 nM
IC50 [9]: 104000 nM
IC50 (HeLa [10]): 9.1 nM
GI50 (SF-268): 16.8 nM
GI50 (NCI/ADR-RES): < 10 nM
GI50 [11]: < 10 nM
GI50 (HOP-62): < 10 nM
GI50 (NCI-H23): < 10 nM
GI50 (SNB-75): < 10 nM
GI50 (SN12C): < 10 nM
IC50 (HeLa [12]): 13.5 nM
GI50 [13]: < 10 nM
GI50 (SK-MEL-28): < 10 nM
GI50 (CCRF-CEM): < 10 nM
GI50 [14]: < 10 nM
GI50 (A549): < 10 nM
IC50 [15]: 19.4 nM
GI50 (SK-OV-3): < 10 nM
GI50 [16]: < 10 nM
GI50 (NCI-H460): < 10 nM
GI50 (SNB-19): < 10 nM
GI50 (SK-MEL-2): < 10 nM
GI50 (SK-MEL-5): < 10 nM
GI50 (NCI-H226): 13 nM
GI50 (NCI-H522): < 10 nM
GI50 [17]: 58.6 nM
IC50 (A-431): 18 nM
GI50 (CAKI-1): < 10 nM
GI50 [18]: < 10 nM
GI50 [19]: < 10 nM
GI50 [20]: < 10 nM
GI50 [21]: < 10 nM
